Reference: PubChem BioAssay AID1963867 (Molecular Pharmacology Branch, DTP, NCI, 2024)

System: KRAS-mutant PDC tumor spheroid with HUVEC/MSC, viability
Assay: Anticancer human tumor 327498-153-R-J2-PDC patient-derived uterine carcinosarcoma cell line growth inhibition [KRAS2]
Details: for IC50: curve of first compound; for viability, T/C: stronger effect = lower value
How it was run: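 Combination screen of spheroid viability in tumor-cell co-cultures with endothelial (HUVEC) and mesenchymal stem cell stroma. Each agent was tested in half-log dilutions, topping at clinical Cmax or at 10 microM without a known Cmax.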

[1] = second compound 0.1 µM, first compound 0.0316 µM
[2] = second compound 0.1 µM, first compound 0.1 µM
[3] = second compound 0.1 µM, first compound 0.316 µM
[4] = second compound 0.1 µM, first compound 1 µM
[5] = second compound 0.1 µM, first compound 3.16 µM
[6] = second compound 0.1 µM, first compound 10 µM
[7] = second compound 0.316 µM, first compound 0.0316 µM
[8] = second compound 0.316 µM, first compound 0.1 µM
[9] = second compound 0.316 µM, first compound 0.316 µM
[10] = second compound 0.316 µM, first compound 1 µM
[11] = second compound 0.316 µM, first compound 3.16 µM
[12] = second compound 0.316 µM, first compound 10 µM
[13] = second compound 1 µM, first compound 0.0316 µM
[14] = second compound 1 µM, first compound 0.1 µM
[15] = second compound 1 µM, first compound 0.316 µM
[16] = second compound 1 µM, first compound 1 µM
[17] = second compound 1 µM, first compound 3.16 µM
[18] = second compound 1 µM, first compound 10 µM
[19] = second compound 3.16 µM, first compound 0.0316 µM
[20] = second compound 3.16 µM, first compound 0.1 µM
[21] = second compound 3.16 µM, first compound 0.316 µM
[22] = second compound 3.16 µM, first compound 1 µM
[23] = second compound 3.16 µM, first compound 3.16 µM
[24] = second compound 3.16 µM, first compound 10 µM
[25] = second compound 10 µM, first compound 0.0316 µM
[26] = second compound 10 µM, first compound 0.1 µM
[27] = second compound 10 µM, first compound 0.316 µM
[28] = second compound 10 µM, first compound 1 µM
[29] = second compound 10 µM, first compound 3.16 µM
[30] = second compound 10 µM, first compound 10 µM
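Also: spheroids exposed to agents for seven days before reading.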
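For viability, T/C in this document: 100% = DMSO vehicle wells so lower means fewer viable cells.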

Row | Compound | IC50 (second compound 0.1 µM) [nM] | IC50 (second compound 0.316 µM) [nM] | IC50 (second compound 1 µM) [nM] | IC50 (second compound 3.16 µM) [nM] | viability, T/C [1] [%] | viability, T/C [2] [%] | viability, T/C [3] [%] | viability, T/C [4] [%] | viability, T/C [5] [%] | viability, T/C [6] [%] | viability, T/C [7] [%] | viability, T/C [8] [%] | viability, T/C [9] [%] | viability, T/C [10] [%] | viability, T/C [11] [%] | viability, T/C [12] [%] | viability, T/C [13] [%] | viability, T/C [14] [%] | viability, T/C [15] [%] | viability, T/C [16] [%] | other results
1 | CC1(C)CCC(CN2CCN(c3ccc(C(=O)NS(=O)(=O)c4ccc(NCC5CCOCC5)c([N+](=O)[O-])c4)c(Oc4cnc5[nH]ccc5c4)c3)CC2)=C(c2ccc(Cl)cc2)C1 + COc1cc2nc(C)nc(NC(C)c3cc(N)cc(C(F)(F)F)c3)c2cc1OC1CCOC1 | 3200 | 2270 | 2010 | 1490 | 78.8 | 80.5 | 76.9 | 77.3 | 50.5 | 4.9 | 74.3 | 64.3 | 75.4 | 71.1 | 41.5 | 1.82 | 74.1 | 72 | 65.9 | 67.8 | IC50 (second compound 10 µM): 178 nM; viability, T/C [17]: 38.8%; viability, T/C [18]: 0.73%; viability, T/C [19]: 65.2%; viability, T/C [20]: 65.3%; viability, T/C [21]: 66.7%; viability, T/C [22]: 61.5%; viability, T/C [23]: 28.4%; viability, T/C [24]: 3.34%; viability, T/C [25]: 53%; viability, T/C [26]: 54.6%; viability, T/C [27]: 42.1%; viability, T/C [28]: 39.9%; viability, T/C [29]: 11.5%; viability, T/C [30]: 0.44%
2 | O=C(c1cc(Cc2n[nH]c(=O)c3ccccc23)ccc1F)N1CCN(C(=O)C2CC2)CC1 + CC1OCC2(CCN(c3cnc(Sc4ccnc(N)c4Cl)c(N)n3)CC2)C1N | 1660 | 1080 | 242 | < 31.6 | 81.3 | 83.8 | 75 | 62.6 | 34.8 | 19.4 | 70.4 | 68.6 | 62.6 | 52.2 | 31.7 | 17.5 | 104 | 60.7 | 44.2 | 40.9 | IC50 (second compound 10 µM): < 31.6 nM; viability, T/C [17]: 21.9%; viability, T/C [18]: 14.2%; viability, T/C [19]: 40.5%; viability, T/C [20]: 37.6%; viability, T/C [21]: 38.1%; viability, T/C [22]: 28.7%; viability, T/C [23]: 17.9%; viability, T/C [24]: 13.8%; viability, T/C [25]: 36.7%; viability, T/C [26]: 31.8%; viability, T/C [27]: 27.1%; viability, T/C [28]: 25.3%; viability, T/C [29]: 15.9%; viability, T/C [30]: 11.4%
3 | CC1OCC2(CCN(c3cnc(Sc4ccnc(N)c4Cl)c(N)n3)CC2)C1N (stereo not given) + C=CC(=O)N1CCN(c2nc(OCC3CCCN3C)nc3c2CCN(c2cccc4cccc(C)c24)C3)CC1CC#N | < 31.6 | < 31.6 | < 31.6 | < 31.6 | 41.2 | 32.9 | 24.9 | 21.2 | 16.2 | 16.4 | 40.6 | 30.9 | 24.4 | 20.4 | 16.4 | 15.3 | 33 | 24.2 | 23.1 | 19.3 | IC50 (second compound 0.0316 µM): < 31.6 nM; viability, T/C (second compound 0.0316 µM, first compound 0.0316 µM): 44%; viability, T/C (second compound 0.0316 µM, first compound 0.1 µM): 40.3%; viability, T/C (second compound 0.0316 µM, first compound 0.316 µM): 23.9%; viability, T/C (second compound 0.0316 µM, first compound 1 µM): 22.6%; viability, T/C (second compound 0.0316 µM, first compound 3.16 µM): 19.6%; viability, T/C (second compound 0.0316 µM, first compound 10 µM): 14.9%; viability, T/C [17]: 14.3%; viability, T/C [18]: 13.5%; viability, T/C [19]: 0.14%; viability, T/C [20]: 0.15%; viability, T/C [21]: 0.14%; viability, T/C [22]: 0.13%; viability, T/C [23]: 0.15%; viability, T/C [24]: 0.24%
